We go through four molecules from PMC12172450, “Moonlighting activity of threonine synthase in cyanobacterial cell death” (mSystems, 2025).

The target in assay [1] is T1, ThrC (threonine synthase; ThrC-His6) (Microcystis aeruginosa, UniProt A0AB33BYK2).
T1 construct: gene BH695_2536; full-length thrC (1,304 bp), N-terminal His6 tag from pET-28b(+), E. coli BL21(DE3), Ni-NTA purified; tag cleavage not mentioned
Briefly: alpha-ketobutyrate formation (semicarbazide / […],4-DNPH), threonine deaminase activity, sigmoidal fit. Format: biochemical. Conditions: 50 mM PIPES pH 8.0, 100 mM KCl, 0.1 mM EDTA, 1 mM DTT, PLP, 25 °C; sigmoidal kinetics.

Assay [2] concerns the target T1, ThrC (threonine synthase; ThrC-His6). Kind of assay: in vitro threonine deaminase assay, inhibition. It counts as biochemical. The conditions noted are these: threonine as substrate; concentration-dependent inhibition.
Assay [3] shares this target. Kind of assay: yellow colour of purified enzyme; PLP-dependent threonine deamination spectra. Format: binding. Conditions: threonine as substrate; 50 mM PIPES pH 8.0.

T1 sequence (A0AB33BYK2 entry or part of it): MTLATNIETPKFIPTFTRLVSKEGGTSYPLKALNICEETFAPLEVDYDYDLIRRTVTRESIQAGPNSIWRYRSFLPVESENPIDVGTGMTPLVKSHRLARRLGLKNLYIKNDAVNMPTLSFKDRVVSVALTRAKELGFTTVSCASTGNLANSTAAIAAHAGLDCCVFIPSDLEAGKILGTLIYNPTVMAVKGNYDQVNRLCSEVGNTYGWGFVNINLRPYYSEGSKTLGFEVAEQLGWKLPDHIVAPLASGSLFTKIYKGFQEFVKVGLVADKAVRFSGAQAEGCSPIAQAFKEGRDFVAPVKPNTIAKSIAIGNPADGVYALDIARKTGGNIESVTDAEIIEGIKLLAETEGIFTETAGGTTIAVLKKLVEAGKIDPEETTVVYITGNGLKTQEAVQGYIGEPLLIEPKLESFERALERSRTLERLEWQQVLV

Take `C[C@@H](O)[C@H](N)C(=O)O` [threonine]: the K0.5 entry in assay [1] is “The sigmoidal kinetics of ThrC as a threonine deaminase were analyzed in the presence of threonine”.

Consider `CC[C@H](C)[C@H](N)C(=O)O` [isoleucine], for which the inhibition result in assay [2] is “alanine and isoleucine, also exhibited concentration-dependent inhibitory activity against aKB-generating deaminases”.

On to `C[C@H](N)C(=O)O` [alanine], for which the inhibition entry in assay [2] was “alanine and isoleucine, also exhibited concentration-dependent inhibitory activity against aKB-generating deaminases”.

With `Cc1ncc(COP(=O)(O)O)c(C=O)c1O` [PLP], in assay [3], the “yellow colour of purified enzyme; PLP-dependent threonine deamination spectra” value is recorded as “threonine synthase could utilize PLP as a catalyst to degrade threonine into keto acids”.
